In publication PMC6897379 (Clinical cancer research : an official journal of the …, 2019):

Test system: relapsed/refractory solid tumors or acute leukemia
Test: Phase 2 trial
Format: in vivo, human
[1] = Acute Lymphoblastic Leukemia, 10 response evaluable
[2] = Ewing Sarcoma, 10 response evaluable
[3] = Germ Cell Tumor, 7 response evaluable
[4] = Hepatoblastoma, 8 response evaluable
[5] = Neuroblastoma (MIBG Evaluable), 24 response evaluable
[6] = Neuroblastoma (Measurable), 24 response evaluable
[7] = Non-Rhabdo Soft Tissue Sarcoma, 10 response evaluable
[8] = Osteosarcoma, 10 response evaluable
[9] = Rhabdoid Tumors, 4 response evaluable
[10] = Rhabdomyosarcoma, 10 response evaluable
[11] = Total, all strata, 137 response evaluable
[12] = Wilms tumor, 10 response evaluable

Structure (SMILES): COc1cc(Nc2ncc3c(n2)-c2ccc(Cl)cc2C(c2c(F)cccc2OC)=NC3)ccc1C(=O)O [alisertib, Alisertib]
- Non-responders [1]: 1
- Progressive Disease [1]: 6
- Stable Disease n patients [1]: 3 n patients
- Non-responders (Acute Myeloid Leukemia, 10 response evaluable): 10
- Non-responders [2]: 2
- Progressive Disease [2]: 5
- Stable Disease n patients [2]: 3 n patients
- Non-responders [3]: 1
- Progressive Disease [3]: 4
- Stable Disease n patients [3]: 2 n patients
- Stable Disease cycles administered (Hepatoblastoma): 5 cycles
- Non-responders [4]: 2
- Progressive Disease [4]: 4
- Stable Disease n patients [4]: 1 n patients
- Stable Disease median (range) cycles administered (Neuroblastoma (MIBG Evaluable)): 13 (5–35) cycles
- Non-responders [5]: 4
- Progressive Disease [5]: 9
- Stable Disease n patients [5]: 9 n patients
- Non-responders [6]: 5
- Progressive Disease [6]: 16
- Stable Disease n patients [6]: 2 n patients
- Stable Disease cycles administered (Non-Rhabdo Soft Tissue Sarcoma): 5 cycles
- Non-responders [7]: 2
- Progressive Disease [7]: 7
- Stable Disease n patients [7]: 1 n patients
- Responses in the other primary disease strata (OS, EWS, RMS, ALL, AML): No responses
- Non-responders [8]: 2
- Progressive Disease [8]: 8
- Non-responders [9]: 1
- Progressive Disease [9]: 3
- Stable Disease cycles administered (Rhabdomyosarcoma): 15 cycles
- Non-responders [10]: 2
- Progressive Disease [10]: 7
- Stable Disease n patients [10]: 1 n patients
- Non-responders [11]: 33
- Progressive Disease [11]: 76
- Stable Disease n patients [11]: 23 n patients
- Stable Disease cycles administered (Wilms tumor): 31 cycles
- Non-responders [12]: 1
- Progressive Disease [12]: 7
- Stable Disease n patients [12]: 1 n patients
- Objective responses observed (all strata, 137 evaluable for response): Five
- Objective response rate (children and adolescents receiving single agent alisertib): less than 5%
